Measured values taken from patent US20220213433A1, “Three-Dimensional Cross-Linked Scaffolds of Cord Blood Plasma and Their Use” (SANFORD HEALTH, priority 2019, published 2022).
“Also recorded” adds a separate entry of the source. Each block holds one compound with its values, some of them ahead of it.

Tests used:
[1] = scaffold stability: scaffold weight at day 0 and after 3 weeks; type: physicochemical, human; details: tranexamic acid in the range of 5 mg/ml (tested 0-5 mg/ml); 3 week period
Procedure: (§1) FIG. 2(a-b). Chemical characterization of cord blood plasma 3D culture model referred as InvitroWOMB (iWOMB).
(§2) Referring to FIG. 2, cross-linking time was assessed by measuring the time necessary to achieve matrix cross-linking using three relevant cross-linkers of the blood coagulation process including thrombin (0-5 mg/ml) and CaCl2 (0-10 mg/ml). The stabilization effects of preventing fibrin degradation and stability improvement in the scaffold was assessed by surveying an antifibrinolytic agent such as tranexamic acid (0-5 mg/ml). The stability of the scaffold was studied by measuring each scaffold weight at day 0 and again measuring scaffold weight at the conclusion of a 3 week time period.

[2] = time to achieve matrix cross-linking of cord blood plasma; type: physicochemical, human
Procedure: as §1, §2

GDM-exposed hu-MSC = assay: hu-MSC growth assay with metformin, live cells counted by Trypan blue; type: cell-based, human; details: 25 μM metformin; 20K cells/well; 72 hour cell counts
From the text: (§3) FIG. 9(a-d). Precision capabilities. (a) Using a custom human antibody array we measured relative expression of cytokines and growth factors in cord plasma for scaffolds from subjects with Type 1 (T1D), Type 2 (T2D) and gestational diabetes (GDM). Bar graphs represent relative expression by densitometry compared to negative control (membrane background). (b) Hu-MSC from control, T1D, T2D and GDM donors (n=2-3/group) were uniformly plated (50K live cells/well) in stem cell media to collagen-coated, 24-well plates. Trypan blue was used to count live cells every 24 hours and growth was measured and compared. Bar graphs represent fold change from baseline to 72 hours; *p<0.05 by one-way ANOVA with Dunnett post-test, (c) Control hu-MSCs were treated with metformin at increasing doses (0, 25, 50 and 100 μM) and growth was followed as previously described. […] Bar graphs represent the number of cells/well remaining at 72 hours after initial plating of 20K cells/well.
(§4) To determine whether iWOMB is a useful tool for precision-based assays, we used umbilical cord plasma and hu-MSC from control and diabetic pregnancy to identify diabetes-related differences in proteins in the DME and/or programmed cell fate. […] Using our customized antibody array as detailed above (FIG. 8), we compared relative expression of cytokines and growth factors in cord plasma protein. Just as fibrinogen levels are higher in cord plasma from diabetic pregnancies, so are other factors. Specifically, umbilical cord plasma cytokines (IL-6, IL-10), insulin like growth factor −1 (IGF-1) and hepatocyte growth factor (HGF) from Type 1 diabetic pregnancy (TID) are higher than in plasma from Type 2 (T2D) and gestational diabetes (GDM) (FIG. 9a). […] Every 24 hours cells were detached using 0.25% trypsin/EDTA and live cells were counted using Trypan blue staining and a hemocytometer. Live cells were recorded at each time point for […]. […] Every 24 hours cells were detached using 0.25% trypsin/EDTA and live cells were counted using Trypan blue and a hemocytometer. Live cells were recorded at each time point for 72 hours. […]

control hu-MSC = assay: as above; type: cell-based, human
From the text: as §3, §4

scaffold stability (prevention of fibrin degradation) [1]: best improvement in scaffold stability
Compound: NC[C@H]1CC[C@H](C(=O)O)CC1 [Tranexamic acid, tranexamic acid]

Compound: [Ca+2].[Cl-].[Cl-] [CaCl2, calcium chloride]
cross-linking time ([2]; CaCl2 1.25 to 5 mg/ml (tested 0-10 mg/ml)): fastest crosslinking

Compound: CN(C)C(=N)N=C(N)N [metformin]
growth of GDM exposed hu-MSC (GDM-exposed hu-MSC): increased growth; also recorded: improves
growth of control hu-MSC (control hu-MSC; 25 μM metformin (level reported in umbilical cord blood), 20K cells/well, 72 hours): does not impair growth
hu-MSC cell growth (number of live cells over time) (control hu-MSC; normal/control hu-MSC, metformin 0, 25, 50, 100 uM, live cells counted every 24 h for 72 hours): impairs hu-MSC growth in a dose dependent manner; also recorded: dose-dependent decline in cell growth

Compound: thrombin
cross-linking time ([2]; thrombin 0.5 to 5 mg/ml (tested 0-5 mg/ml)): fastest crosslinking
